Assay results published in paper PMC12892976, “Alkylation-based optimization of antifungal FPPS inhibitors yields a potent, broad-spectrum lipophilic zoledronate derivative” (mBio, 2025).
Like-named read-outs stand apart in the source and are kept apart here.

What was measured:
Aspergillus flavus [1] = assay: MIC/MFC broth microdilution (CLSI); conditions: ATCC204304
Description: (§1) Antifungal susceptibility was determined by broth microdilution according to the CLSI guidelines described in M27-Ed4 ([16]). […] MFC was determined by back-plating drug-treated cultures from MIC broths onto SDA plates. The MFC was defined as the lowest concentration from which no colonies could be cultured.

Cryptococcus neoformans [2] = assay: checkerboard drug interaction (FICI, MICc);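 as to all read-outs here: antifungal plus FPPS inhibitor pairs tested against Cryptococcus neoformans by simplified diagonal checkerboard screening, FICI computed under the Loewe additivity model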; format: cell-based; conditions: C. neoformans; for INH FD (MIC-MICc fold decrease): fold decrease of inhibitor MIC
Description: (§2) Drug interactions between antifungals and FPPS inhibitors were investigated using a simplified checkerboard diagonal screening method ([45]). […] FICIs were determined according to the Loewe additivity model ([17]).

Candida albicans [3] = assay: MIC/MFC broth microdilution (CLSI); format: cell-based; conditions: Candida albicans SC5314
Description: as §1

Aspergillus fumigatus [4] = assay: MIC/MFC broth microdilution (CLSI); conditions: ATCC204305
Description: as §1

Saccharomyces cerevisiae [5] = assay: MIC/MFC broth microdilution (CLSI); format: cell-based; conditions: Saccharomyces cerevisiae S288c
Description: as §1

Aspergillus fumigatus [6] = assay: checkerboard drug interaction (FICI, MICc);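 as to all read-outs here: simplified diagonal checkerboard screen pairing antifungals with FPPS inhibitors against Aspergillus fumigatus, with FICI calculated under the Loewe additivity model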; format: cell-based; conditions: A. fumigatus; for INH FD (MIC-MICc fold decrease): fold decrease of inhibitor MIC
Description: as §2

Trichophyton rubrum [7] = assay: checkerboard drug interaction (FICI, MICc);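 also: simplified diagonal checkerboard screen pairing azole antifungals with FPPS inhibitors, FICI calculated under the Loewe additivity model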; format: cell-based; conditions: T. rubrum
Description: as §2

[8] = system: Cryptococcus deuterogattii; assay: checkerboard drug interaction (FICI, MICc);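 as to all read-outs here: simplified diagonal checkerboard screen pairing antifungal drugs with FPPS inhibitors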; format: cell-based; conditions: C. deuterogattii; for INH FD (MIC-MICc fold decrease): fold decrease of inhibitor MIC
Description: as §2

Candida glabrata [9] = assay: MIC/MFC broth microdilution (CLSI); conditions: Nakaseomyces glabratus, CBS138;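 also: broth microdilution following CLSI M27-Ed4, MFC taken as the lowest drug level yielding no growth once MIC wells were subcultured on SDA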
Description: as §1

Cryptococcus neoformans [10] = assay: MIC/MFC broth microdilution (CLSI); conditions: Cryptococcus neoformans;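 also: susceptibility testing followed the CLSI M27-Ed4 broth microdilution document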
Description: as §1

Aspergillus flavus [11] = assay: checkerboard drug interaction (FICI, MICc);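 also: simplified diagonal checkerboard screen pairing azole antifungals with FPPS inhibitors, FICI calculated under the Loewe additivity model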; format: cell-based; parameters: INH MICc (KET:INH) / INH MICc (FLC:INH): unit not given beside the values; conditions: A. flavus
Trichophyton rubrum [12] = assay: MIC/MFC broth microdilution (CLSI); conditions: Trichophyton rubrum
Description: as §1

eight fungal species [13] = assay: MIC/MFC summary across the eight fungal species of Table 1; format: cell-based
Description: The antifungal activity of these compounds was evaluated according to CLSI guidelines ([16]).

HEK-293T cells = assay: MTT reduction cytotoxicity assay; format: cell-based; conditions: Homo sapiens, HEK-293T, 72 h, HEK-293T, MTT, 72 h; read-out: HEK IC50
Candida albicans [14] = assay: checkerboard drug interaction (FICI, MICc);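 as to all read-outs here: antifungal plus FPPS inhibitor combinations on Candida albicans tested by a simplified diagonal checkerboard screen, with FICI calculated under the Loewe additivity model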; format: cell-based; conditions: C. albicans; for INH FD (MIC-MICc fold decrease): fold decrease of inhibitor MIC
Description: as §2

[15] = system: Cryptococcus deuterogattii; assay: MIC/MFC broth microdilution (CLSI); conditions: Cryptococcus deuterogattii;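 also: broth microdilution per CLSI M27-Ed4. MFC is the lowest concentration yielding no colonies when MIC broths are subcultured onto SDA plates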
Description: as §1

Saccharomyces cerevisiae [16] = assay: checkerboard drug interaction (FICI, MICc);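 as to all read-outs here: simplified diagonal checkerboard screen pairing antifungals with FPPS inhibitors, FICI calculated under the Loewe additivity model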; format: cell-based; parameters: INH MICc / INH MICc (ITR:INH) / INH MICc (KET:INH) / INH MICc (FLC:INH): unit not given beside the values; conditions: S. cerevisiae; for INH FD (MIC-MICc fold decrease): fold decrease of inhibitor MIC
eight fungal species [17] = assay: checkerboard interaction with azoles, summary across the eight species; format: cell-based; conditions: geometric mean MIC in combination with azoles
Description: Synergy between lipophilic FPPS inhibitors and azole antifungals was investigated by determining the fractional inhibitory concentration index (FICI) (Fig. 2; Table S1 Fig. S1) ([17]). […]. Derivatives PLA9 and 11, and PDA9, 11, and 12 antagonized azoles in C. albicans, C. neoformans, and C. deuterogattii, yet were largely synergistic in C. glabrata and S. cerevisiae. […].

Candida glabrata [18] = assay: checkerboard drug interaction (FICI, MICc);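 as to all read-outs here: simplified diagonal checkerboard screen pairing antifungals with FPPS inhibitors, FICI calculated under the Loewe additivity model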; format: cell-based; conditions: C. glabrata; for INH FD (MIC-MICc fold decrease): fold decrease of inhibitor MIC
Description: as §2

[19] = FLC:INH combination, MIC of the inhibitor in combination with FLC
[20] = FLC:INH combination, fold decrease of FLC MIC
[21] = ITR:INH combination, MIC of the inhibitor in combination with ITR
[22] = ITR:INH combination, fold decrease of ITR MIC
[23] = KET:INH combination, MIC of the inhibitor in combination with KET
[24] = KET:INH combination, fold decrease of KET MIC
[25] = FLC:INH combination, MIC of FLC in combination with the inhibitor
[26] = ITR:INH combination, MIC of ITR in combination with the inhibitor
[27] = KET:INH combination, MIC of KET in combination with the inhibitor
[28] = Fractional Inhibitory Concentration Index, fluconazole + inhibitor
[29] = Fractional Inhibitory Concentration Index, itraconazole + inhibitor
[30] = Fractional Inhibitory Concentration Index, ketoconazole + inhibitor
[31] = MIC of the inhibitor in combination with fluconazole
[32] = MIC of the inhibitor in combination with itraconazole
[33] = MIC of the inhibitor in combination with ketoconazole
[34] = MIC-MICc fold decrease of fluconazole, negative = increase
[35] = MIC-MICc fold decrease of itraconazole, negative = increase
[36] = MIC-MICc fold decrease of ketoconazole, negative = increase
[37] = MIC-MICc fold decrease of the inhibitor, with fluconazole
[38] = MIC-MICc fold decrease of the inhibitor, with itraconazole
[39] = MIC-MICc fold decrease of the inhibitor, with ketoconazole

CCCCCCCCCN1CCC[C@H]1C(=O)N[C@@H](CC(=O)O)C(=O)O [PLA9]
MFC (Aspergillus flavus [1]): > 128 µg/mL
MIC (Aspergillus flavus [1]): > 128 µg/mL
FICI (Cryptococcus neoformans [2]; FLC:INH combination): ≥4
INH MICc (Cryptococcus neoformans [2]; [19]): 256
FLC FD (MIC-MICc fold decrease) (Cryptococcus neoformans [2]; [20]): < -4
INH FD (MIC-MICc fold decrease) (Cryptococcus neoformans [2]; FLC:INH combination): 1
FICI (Cryptococcus neoformans [2]; ITR:INH combination): ≥4
INH MICc (Cryptococcus neoformans [2]; [21]): 128
ITR FD (MIC-MICc fold decrease) (Cryptococcus neoformans [2]; [22]): -4
INH FD (MIC-MICc fold decrease) (Cryptococcus neoformans [2]; ITR:INH combination): 2
FICI (Cryptococcus neoformans [2]; KET:INH combination): ≥4
INH MICc (Cryptococcus neoformans [2]; [23]): 128
KET FD (MIC-MICc fold decrease) (Cryptococcus neoformans [2]; [24]): -4
INH FD (MIC-MICc fold decrease) (Cryptococcus neoformans [2]; KET:INH combination): 2
MFC (Candida albicans [3]): > 128 µg/mL
MIC (Candida albicans [3]): > 128 µg/mL
MFC (Aspergillus fumigatus [4]): > 128 µg/mL
MIC (Aspergillus fumigatus [4]): > 128 µg/mL
MFC (Saccharomyces cerevisiae [5]): > 128 µg/mL
MIC (Saccharomyces cerevisiae [5]): > 128 µg/mL
FICI (Aspergillus fumigatus [6]; FLC:INH combination): 2
FLC MICc (Aspergillus fumigatus [6]; [25]): 128
INH MICc (Aspergillus fumigatus [6]; [19]): 256
FLC FD (MIC-MICc fold decrease) (Aspergillus fumigatus [6]; [20]): 1
INH FD (MIC-MICc fold decrease) (Aspergillus fumigatus [6]; FLC:INH combination): 1
FICI (Aspergillus fumigatus [6]; ITR:INH combination): 0.51
ITR MICc (Aspergillus fumigatus [6]; [26]): 0.063
INH MICc (Aspergillus fumigatus [6]; [21]): 2
ITR FD (MIC-MICc fold decrease) (Aspergillus fumigatus [6]; [22]): 2
INH FD (MIC-MICc fold decrease) (Aspergillus fumigatus [6]; ITR:INH combination): 128
FICI (Aspergillus fumigatus [6]; KET:INH combination): 1.5
KET MICc (Aspergillus fumigatus [6]; [27]): 4
INH MICc (Aspergillus fumigatus [6]; [23]): 128
KET FD (MIC-MICc fold decrease) (Aspergillus fumigatus [6]; [24]): 1
INH FD (MIC-MICc fold decrease) (Aspergillus fumigatus [6]; KET:INH combination): 2
FICI (FLC:INH) (Trichophyton rubrum [7]; [28]): 3
FICI (ITR:INH) (Trichophyton rubrum [7]; [29]): 2
FICI (KET:INH) (Trichophyton rubrum [7]; [30]): 1.5
INH MICc (FLC:INH) (Trichophyton rubrum [7]; [31]): 256
INH MICc (ITR:INH) (Trichophyton rubrum [7]; [32]): 256
INH MICc (KET:INH) (Trichophyton rubrum [7]; [33]): 128
FLC FD (FLC:INH) (Trichophyton rubrum [7]; [34]): -2
ITR FD (ITR:INH) (Trichophyton rubrum [7]; [35]): 1
KET FD (KET:INH) (Trichophyton rubrum [7]; [36]): 1
INH FD (FLC:INH) (Trichophyton rubrum [7]; [37]): 1
INH FD (ITR:INH) (Trichophyton rubrum [7]; [38]): 1
INH FD (KET:INH) (Trichophyton rubrum [7]; [39]): 2
FICI ([8]; FLC:INH combination): ≥4
INH MICc [8, 19]: 256
FLC FD (MIC-MICc fold decrease) [8, 20]: -4
INH FD (MIC-MICc fold decrease) ([8]; FLC:INH combination): 1
FICI ([8]; ITR:INH combination): ≥4
INH MICc [8, 21]: 256
ITR FD (MIC-MICc fold decrease) [8, 22]: < -4
INH FD (MIC-MICc fold decrease) ([8]; ITR:INH combination): 1
FICI ([8]; KET:INH combination): 1
INH MICc [8, 23]: 128
KET FD (MIC-MICc fold decrease) [8, 24]: 2
INH FD (MIC-MICc fold decrease) ([8]; KET:INH combination): 2
MFC (Candida glabrata [9]): > 128 µg/mL
MIC (Candida glabrata [9]): > 128 µg/mL
MFC (Cryptococcus neoformans [10]): > 128 µg/mL
MIC (Cryptococcus neoformans [10]): > 128 µg/mL
FICI (FLC:INH) (Aspergillus flavus [11]; [28]): 2
FICI (ITR:INH) (Aspergillus flavus [11]; [29]): 1.5
FICI (KET:INH) (Aspergillus flavus [11]; [30]): 1
INH MICc (FLC:INH) (Aspergillus flavus [11]; [31]): 256
INH MICc (ITR:INH) (Aspergillus flavus [11]; [32]): 128
INH MICc (KET:INH) (Aspergillus flavus [11]; [33]): 128
FLC FD (FLC:INH) (Aspergillus flavus [11]; [34]): 1
ITR FD (ITR:INH) (Aspergillus flavus [11]; [35]): 1
KET FD (KET:INH) (Aspergillus flavus [11]; [36]): 2
INH FD (FLC:INH) (Aspergillus flavus [11]; [37]): 1
INH FD (ITR:INH) (Aspergillus flavus [11]; [38]): 2
INH FD (KET:INH) (Aspergillus flavus [11]; [39]): 2
MFC (Trichophyton rubrum [12]): > 128 µg/mL
MIC (Trichophyton rubrum [12]): > 128 µg/mL
MFC (eight fungal species [13]; across eight species, read-out: Geometric mean MFC): > 128 µg/mL
MIC (eight fungal species [13]; geometric mean across eight species, read-out: GM fungal MIC): > 128 µg/mL
MIC (eight fungal species [13]; read-out: Geometric mean MIC): > 128 µg/mL
IC50 (HEK-293T cells): > 256 µg/mL
FICI (Candida albicans [14]; FLC:INH combination): ≥4
INH MICc (Candida albicans [14]; [19]): 64
FLC FD (MIC-MICc fold decrease) (Candida albicans [14]; [20]): < -4
INH FD (MIC-MICc fold decrease) (Candida albicans [14]; FLC:INH combination): 4
FICI (Candida albicans [14]; ITR:INH combination): 0.52
INH MICc (Candida albicans [14]; [21]): 4
ITR FD (MIC-MICc fold decrease) (Candida albicans [14]; [22]): 2
INH FD (MIC-MICc fold decrease) (Candida albicans [14]; ITR:INH combination): 64
FICI (Candida albicans [14]; KET:INH combination): ≥4
INH MICc (Candida albicans [14]; [23]): 64
KET FD (MIC-MICc fold decrease) (Candida albicans [14]; [24]): < -4
INH FD (MIC-MICc fold decrease) (Candida albicans [14]; KET:INH combination): 4
MFC [15]: > 128 µg/mL
MIC [15]: > 128 µg/mL
FICI (Saccharomyces cerevisiae [16]; FLC:INH combination): 0.31
FLC MICc (Saccharomyces cerevisiae [16]; [25]): 1
INH MICc (Saccharomyces cerevisiae [16]; [19]): 16
FLC FD (MIC-MICc fold decrease) (Saccharomyces cerevisiae [16]; [20]): 4
INH FD (MIC-MICc fold decrease) (Saccharomyces cerevisiae [16]; FLC:INH combination): 16
FICI (Saccharomyces cerevisiae [16]; ITR:INH combination): 0.5
ITR MICc (Saccharomyces cerevisiae [16]; [26]): 0.063
INH MICc (Saccharomyces cerevisiae [16]; [21]): 64
ITR FD (MIC-MICc fold decrease) (Saccharomyces cerevisiae [16]; [22]): 4
INH FD (MIC-MICc fold decrease) (Saccharomyces cerevisiae [16]; ITR:INH combination): 4
FICI (Saccharomyces cerevisiae [16]; KET:INH combination): 0.19
KET MICc (Saccharomyces cerevisiae [16]; [27]): 0.25
INH MICc (Saccharomyces cerevisiae [16]; [23]): 16
KET FD (MIC-MICc fold decrease) (Saccharomyces cerevisiae [16]; [24]): 8
INH FD (MIC-MICc fold decrease) (Saccharomyces cerevisiae [16]; KET:INH combination): 16
GM fungal MICc (eight fungal species [17]): 53.8
FICI (Candida glabrata [18]; FLC:INH combination): 0.31
INH MICc (Candida glabrata [18]; [19]): 4
FLC FD (MIC-MICc fold decrease) (Candida glabrata [18]; [20]): 4
INH FD (MIC-MICc fold decrease) (Candida glabrata [18]; FLC:INH combination): 64
FICI (Candida glabrata [18]; ITR:INH combination): 0.28
INH MICc (Candida glabrata [18]; [21]): 2
ITR FD (MIC-MICc fold decrease) (Candida glabrata [18]; [22]): 4
INH FD (MIC-MICc fold decrease) (Candida glabrata [18]; ITR:INH combination): 128
FICI (Candida glabrata [18]; KET:INH combination): 0.28
INH MICc (Candida glabrata [18]; [23]): 2
KET FD (MIC-MICc fold decrease) (Candida glabrata [18]; [24]): 4
INH FD (MIC-MICc fold decrease) (Candida glabrata [18]; KET:INH combination): 128
